This is an account of results in ChEMBL document CHEMBL4265931, “Identification of dual Sigma1 receptor modulators/acetylcholinesterase inhibitors with antioxidant and neurotrophic properties, as neuroprotective agents” (Eur J Med Chem, 2018).

Activity calls are given as the source filed them. The calls are words filed in the database; no cut-off is given here. Where only a bound is given, the exact number is not on record here.

Data set [1] can be described thus: in vitro. Conditions: human.
Description: Cytotoxicity against human SH-SY5Y cells assessed as cell viability at 10 uM after 24 hrs by MTS assay relative to control
Data set [2] can be described thus: Selectivity ratio of Ki for S2R in rat liver membranes to Ki for S1R in guinea pig brain cortex membranes. It is filed as cell membranes.
A short description of data set [3]: Neurotoxicity in Sprague-Dawley rat embryo DRG neuron at 2.5 to 5 uM after 24 to 48 hrs. It is filed as toxicity.
Data set [4] can be described thus: Neurotoxicity in Sprague-Dawley rat embryo DRG neuron at 10 uM after 24 hrs. It is filed as toxicity.
Data set [5] is described as follows: Antioxidant activity assessed as DPPH free radical scavenging at 465 uM after 20 mins by UV-Vis spectrophotometric analysis relative to control. It is filed as functional. A general note: Loss of DPPH colour is used to gauge radical scavenging.
Data set [6] addresses T1, Sigma intracellular receptor 2 (Rattus norvegicus, UniProt Q5U3Y7).
T1 sequence (Q5U3Y7 whole entry): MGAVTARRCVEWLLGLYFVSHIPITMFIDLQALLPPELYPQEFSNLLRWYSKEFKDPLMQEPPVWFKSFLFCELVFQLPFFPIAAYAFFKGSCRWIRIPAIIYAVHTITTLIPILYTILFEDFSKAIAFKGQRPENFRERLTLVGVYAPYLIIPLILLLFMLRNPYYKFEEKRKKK
Briefly: Displacement of [3H]-DTG from S2R in rat liver membranes after 120 mins by scintillation counting assay. It is filed as cell membranes, Membrane. On the technique in general: Displacement assays read how much labelled ligand stays bound in the presence of the test substance.

Data set [7] can be described thus: in vitro. As to conditions: human. The source holds these as a separate data set.
For data set [8], the system named is SH-SY5Y. Briefly: Neuroprotection against H2O2-induced oxidative stress in human SH-SY5Y cells assessed as reduction in ROS generation at 10 uM preincubated for 3 hrs followed by DCFDA addition for 45 mins and subsequent co-treatment with compound and H2O2 for 24 hrs by fluorescence assay relative to control. It is filed as functional. Details: scale not given: the % may be the effect or the level left.

Data set [9] in a line: Displacement of [3H]-ifenprodil from GluN1a/GluN2B (unknown origin) expressed in mouse L(tk-) cell membranes after 120 mins by scintillation counting analysis. On the set-up: species or system Homo sapiens.
The test system of data set [10] is SH-SY5Y. Briefly: Cytotoxicity against human SH-SY5Y cells assessed as reduction in cell viability after 48 hrs by MTS assay. It is filed as cell-based. Conditions: for IC50: Homo sapiens, SH-SY5Y; for Activity: human, sh-sy5y.
Data set [11] deals with SH-SY5Y. Briefly: Cytotoxicity against human SH-SY5Y cells assessed as reduction in cell viability after 24 hrs by MTS assay. It is filed as cell-based. As to conditions: for IC50: Homo sapiens, SH-SY5Y; for Activity: human, sh-sy5y.
Data set [12] is described as follows: Antioxidant activity assessed as DPPH free radical scavenging after 20 mins by UV-Vis spectrophotometric analysis. It is filed as functional.
A short description of data set [13]: in vitro. As to conditions: human. This is another data set of the same source.
Description: Cytotoxicity against human SH-SY5Y cells assessed as cell viability at 50 uM after 48 hrs by MTS assay relative to control
Data set [14] can be described thus: in vitro. Conditions: human. This is another data set of the same source.
A short description of data set [15]: Neurotrophic activity in Sprague-Dawley rat embryo DRG neuron assessed as increase in neurite length at 2.5 uM after 24 hrs relative to control. It is filed as functional.
The target in another data set is Acetylcholinesterase (Electrophorus electricus, UniProt O42275). Briefly: Inhibition of electric eel AChE using acetylthiocholine iodide as substrate preincubated for 5 mins followed by substrate addition and measured after 2 mins by Ellman's method. Background: In Ellman's method for cholinesterases, released thiocholine reacts with DTNB.
Acetylcholinesterase, sequence (O42275 whole entry): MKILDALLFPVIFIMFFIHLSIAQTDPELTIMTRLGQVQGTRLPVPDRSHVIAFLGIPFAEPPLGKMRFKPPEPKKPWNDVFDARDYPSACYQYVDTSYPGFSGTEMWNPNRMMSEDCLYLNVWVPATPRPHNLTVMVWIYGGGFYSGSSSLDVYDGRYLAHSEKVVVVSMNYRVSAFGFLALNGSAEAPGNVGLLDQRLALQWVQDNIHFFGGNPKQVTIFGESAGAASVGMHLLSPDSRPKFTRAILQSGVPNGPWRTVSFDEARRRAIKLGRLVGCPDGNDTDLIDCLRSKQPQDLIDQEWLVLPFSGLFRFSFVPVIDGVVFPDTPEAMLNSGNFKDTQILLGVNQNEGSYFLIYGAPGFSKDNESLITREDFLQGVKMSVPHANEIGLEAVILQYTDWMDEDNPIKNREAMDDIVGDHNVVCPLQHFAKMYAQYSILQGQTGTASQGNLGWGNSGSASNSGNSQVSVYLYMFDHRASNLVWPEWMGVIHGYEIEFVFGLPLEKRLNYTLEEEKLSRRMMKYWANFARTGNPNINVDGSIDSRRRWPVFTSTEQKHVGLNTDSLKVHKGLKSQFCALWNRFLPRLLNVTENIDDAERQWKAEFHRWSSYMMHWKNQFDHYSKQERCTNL
Data set [16] is described as follows: Neurotoxicity in Sprague-Dawley rat embryo DRG neuron at 10 uM after 48 hrs. It is filed as toxicity.
Data set [17] can be described thus: in vitro. As to conditions: human. This is another data set of the same source.
Description: Cytotoxicity against human SH-SY5Y cells assessed as cell viability at 50 uM after 24 hrs by MTS assay relative to control
A short description of data set [18]: in vitro. Conditions: human. This is another data set of the same source.
Description: Cytotoxicity against human SH-SY5Y cells assessed as cell viability at 10 uM after 48 hrs by MTS assay relative to control
The target of data set [19] is T2, Sigma non-opioid intracellular receptor 1 (Cavia porcellus, UniProt Q60492). Details: species or system Hartley.
T2 sequence (Q60492 whole entry): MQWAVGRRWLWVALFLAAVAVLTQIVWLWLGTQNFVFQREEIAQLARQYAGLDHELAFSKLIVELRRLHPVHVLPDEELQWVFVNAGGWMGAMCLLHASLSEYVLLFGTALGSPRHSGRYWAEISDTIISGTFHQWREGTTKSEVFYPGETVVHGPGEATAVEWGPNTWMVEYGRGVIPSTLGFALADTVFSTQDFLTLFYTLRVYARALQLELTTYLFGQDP
Description: Displacement of [3H]DTG from S1R in P2 fraction of Hartley guinea pig whole brain after 90 mins by liquid scintillation counting method
Data set [20] concerns the target T2, Sigma non-opioid intracellular receptor 1. Briefly: Displacement of [3H](+)-pentazocine from S1R in guinea pig brain cortex membranes after 120 mins by scintillation counting assay. It is filed as cell membranes.
Data set [21] can be described thus: Neurotrophic activity in Sprague-Dawley rat embryo DRG neuron assessed as increase in neurite length at 2.5 to 5 uM after 24 to 48 hrs relative to control. It is filed as functional.

One may read the viability as a read-out of living cells in per cent, often relative to untreated cells. Usually Ki stands for a measure of affinity in units of concentration, obtained from inhibition or displacement. Broadly, the IC50 is the concentration that inhibits the measured activity by half.

Turning to `Cl.O=C(CN1CCC(Cc2ccccc2)CC1)c1ccc2ccccc2c1`, in the data set “in vitro [1]” (SH-SY5Y cells), the viability at 24 h, 10 µM is 107%. The Ratio Ki in data set [2] stood at 30. Besides, the Activity entry is “Non-Toxic” in data set [3]; “Toxic” in data set [4]; 65.7% in [5]; “<=43%” with SH-SY5Y [8]; “Dose-dependent effect” with SH-SY5Y [10]; “Dose-dependent effect” in the data set on SH-SY5Y [11]. Further, the Activity was 15% in [15] and “Non-Toxic” in data set [16]. Besides, the Ki in data set [6] stood at 0.802 µM; in data set [9], 0.139 µM. Besides, the viability at 48 h, 25 µM in the data set “in vitro [7]” (SH-SY5Y cells) came out at 77.6%. For the same compound, the concentration for half-maximal inhibition (IC50) amounted to 57 µM in the data set on SH-SY5Y [10], 52 µM in the data set with SH-SY5Y [11], 86.8 µM in [12] and 9.13 µM against Acetylcholinesterase. Besides, the viability at 48 h, 50 µM in the data set “in vitro [13]” (SH-SY5Y cells) came to 48.4%. Moreover, the viability at 24 h, 25 µM in “in vitro [14]” (SH-SY5Y cells) is 104%. Besides, in “in vitro [17]” (SH-SY5Y cells), the viability at 24 h, 50 µM was found to be 81.3%. In the data set “in vitro [18]” (SH-SY5Y cells), the viability at 48 h, 10 µM was found to be 89.5%.

With `COc1cc2c(cc1OC)C(=O)C(CC1CCN(Cc3ccccc3)CC1)C2` (stereo not drawn) [DONEPEZIL], in the data set “in vitro [1]” (sh-sy5y), the viability at 24 h, 10 µM came out at 100%. In addition, the Activity in data set [5] stood at 4.4%. The viability at 48 h, 25 µM in “in vitro [7]” (sh-sy5y) came out at 80.4%. Besides, the outcome with SH-SY5Y [8] was inactive. Moreover, the affinity in [19] corresponds to a Ki of 0.0146 µM. Moreover, in “in vitro [13]” (sh-sy5y), the viability at 48 h, 50 µM was determined as 64.4%. Further, the viability at 24 h, 25 µM in the data set “in vitro [14]” (sh-sy5y) turned out to be 99.3%. Also, in the data set “in vitro [17]” (sh-sy5y), the viability at 24 h, 50 µM is 94.7%. Moreover, the viability at 48 h, 10 µM in the data set “in vitro [18]” (sh-sy5y) worked out at 94.3%.

As for `COc1cc(/C=C/C(=O)CC(=O)/C=C/c2ccc(O)c(OC)c2)ccc1O` [CURCUMIN], the viability at 24 h, 10 µM in “in vitro [1]” (SH-SY5Y cells) is 100%. Also, the Activity amounted to 71.3% in data set [5] and 0% in the data set on SH-SY5Y [8]. The viability at 48 h, 25 µM in the data set “in vitro [7]” (SH-SY5Y cells) came to 58.7%. The IC50 in [12] stood at 13.5 µM. Besides, the viability at 48 h, 50 µM in “in vitro [13]” (SH-SY5Y cells) was 59%. In addition, the viability at 24 h, 25 µM in the data set “in vitro [14]” (SH-SY5Y cells) was found to be 76.5%. In “in vitro [17]” (SH-SY5Y cells), the viability at 24 h, 50 µM turned out to be 71.5%. The viability at 48 h, 10 µM in “in vitro [18]” (SH-SY5Y cells) was determined as 100%.

As to `COc1ccc(C(=O)CCN2CCC(Cc3ccccc3)CC2)cc1.Cl`, the viability at 24 h, 10 µM in the data set “in vitro [1]” (SH-SY5Y cells) came out at 99.9%. In addition, the Ratio Ki in data set [2] is 218. Besides, the Activity in data set [5] was 2.8%; in the data set on SH-SY5Y [10], “Dose-dependent effect”; in the data set with SH-SY5Y [11] it was “Dose-dependent effect”. In addition, the inhibitory constant (Ki) in [6] worked out at 2.4 µM; in data set [20] it was 0.011 µM; in data set [9] it was 0.198 µM. In “in vitro [7]” (SH-SY5Y cells), the viability at 48 h, 25 µM worked out at 50.2%. The result in the data set on SH-SY5Y [8] was inactive. In the data set “in vitro [13]” (SH-SY5Y cells), the viability at 48 h, 50 µM was 44.7%. The viability at 24 h, 25 µM in “in vitro [14]” (SH-SY5Y cells) worked out at 63.9%. The compound also gave a half-maximal inhibitory concentration (IC50) on Acetylcholinesterase of 22 µM. In “in vitro [17]” (SH-SY5Y cells), the viability at 24 h, 50 µM came to 56.5%. Also, in “in vitro [18]” (SH-SY5Y cells), the viability at 48 h, 10 µM came to 97.4%.

For the compound `Cl.O=C(CCN1CCCCC1)c1ccc(-c2ccccc2)cc1`, the viability at 24 h, 10 µM in “in vitro [1]” (SH-SY5Y cells) was determined as 104%. The Ratio Ki in data set [2] was determined as 30.8. The Activity result in data set [3] was “Non-Toxic”; in data set [4] it was “Toxic”; in [5] it was 15.5%; in [21] it was 20%; in the data set on SH-SY5Y [8], 18%; in the data set on SH-SY5Y [10], “Dose-dependent effect”. Also, the Activity result with SH-SY5Y [11] is “Dose-dependent effect”; in data set [16] it was “Non-Toxic”. For the same compound, the inhibition constant (Ki) in [6] is 0.462 µM; in data set [9], > 1 µM. The viability at 48 h, 25 µM in the data set “in vitro [7]” (SH-SY5Y cells) worked out at 49.3%. Also, the IC50 in the data set on SH-SY5Y [10] came to 22 µM; in the data set with SH-SY5Y [11], 37 µM; at Acetylcholinesterase, 13.1 µM. For the same compound, the viability at 48 h, 50 µM in the data set “in vitro [13]” (SH-SY5Y cells) came out at 44.7%. Moreover, in the data set “in vitro [14]” (SH-SY5Y cells), the viability at 24 h, 25 µM was determined as 95.4%. The viability at 24 h, 50 µM in “in vitro [17]” (SH-SY5Y cells) stood at 64%. The viability at 48 h, 10 µM in the data set “in vitro [18]” (SH-SY5Y cells) stood at 95.9%.

As to `COc1ccc(C(=O)CN2CCC(Cc3ccccc3)CC2)cc1.Cl`, the viability at 24 h, 10 µM in “in vitro [1]” (SH-SY5Y cells) turned out to be 103%. The Ratio Ki in data set [2] was determined as 74. For the same compound, the Activity is 65.6% in [5], “Dose-dependent effect” with SH-SY5Y [10] and “Dose-dependent effect” in the data set on SH-SY5Y [11]. Besides, the Ki was determined as 2 µM in data set [6], 0.027 µM in data set [20] and 0.016 µM in data set [9]. Also, the viability at 48 h, 25 µM in the data set “in vitro [7]” (SH-SY5Y cells) was 69.3%. For the same compound, in [12], the IC50 came out at 147 µM. The viability at 48 h, 50 µM in the data set “in vitro [13]” (SH-SY5Y cells) came out at 52.5%. In addition, the viability at 24 h, 25 µM in the data set “in vitro [14]” (SH-SY5Y cells) amounted to 98.4%. Further, the viability at 24 h, 50 µM in “in vitro [17]” (SH-SY5Y cells) worked out at 87%. Besides, the viability at 48 h, 10 µM in “in vitro [18]” (SH-SY5Y cells) was 85.5%.
